For test [1], the system named is antibody raised against Tyr-(CGRP amino acids 25-37)-amide. Put plainly: Radioimmunoassay cross-reactivity with 125I-Tyr-(CGRP amino acids 25-37)-amide tracer. It counts as binding, rabbit. As to conditions: 1:12500 dilution of serum, 1800 cpm tracer, 400 μl assay. The procedure: Cells from a 500 ml culture were harvested and lysed in a lysozyme/sodium deoxycholate mixture (5 ml), then treated with DNase for 30 mins. at 5° C. (Emtage J. S. et al PNAS (1983), 80, p 3671-3675). […] Radioimmunoassay was carried out in 0.05M phosphate buffer pH 7.4 in a final volume of 400 ul (see Girgis, S. I. et al J. Endocrinol 78, 372-382). Antiserum was raised in rabbits, using the known techniques, against Tyr-(CGRP amino acids 25-37)-amide and conjugated to chick ovalbumin (Reichlin, M.1980, Meth.Enzymol 70 159-165) and against ^125 I Tyr-(CGRP amino acids 25-37)-amide tracer.
The tracer was iodinated using the Chloramine T method of Hunter and Greenwood.

Test [2] has as its system pentobarbitone anaesthetised rat. Briefly: Cardiovascular actions (mean arterial pressure, heart rate) after i.v. administration in anaesthetised rats. It counts as in vivo. On the procedure:
Groups of 4 to 6 male Sprague-Dawley rats (285-315 g) were anaesthetised with sodium pentobarbitone (60 mg Kg^-1 i.p.). The trachea, left carotid artery and left jugular vein were cannulated. Blood pressure was recorded from the carotid artery on a Grass polygraph via a Statham P23 ID pressure transducer and mean arterial pressure derived from the trace. Heart rate was measured by a tachograph (Grass model 7P4) triggered by the blood pressure signal. […] Purified rat CGRP was from the same source. All synthetic preparations were subject to mass spectrometry (M-Scan Ltd.) to confirm structure and purity before use. […] All compounds were administered intravenously except for mepyramine (s.c.). […] The peak fall in mean arterial pressure (MAP) and heart rate (HR) after 2 min was measured.
The mechanism of action of PDA-4 was not examined.

Test [3] relates to guinea-pig right atrial preparation. Put plainly: Rate and force of contraction of isolated guinea-pig right atrium. It counts as cell-based. The procedure:
Male Dunkin Hartley guinea-pigs (280-400 g) were killed by cervical dislocation and exsanguinated. The heart was removed, the right atrium dissected out and mounted under 0.5 g tension in Krebs solution (mM): NaCl 118, KCl 4.7, CaCl2 2.5, KH2 PO4 1.18, NaHCO3 25, MgSO4 1.18 and glucose 11.1, at 34° C. bubbled with 95:5 02 :CO2. Atrial force and rate were measured isometrically by a Grass FT.03 transducer and recorded on a Grass polygraph. Single doses of either human or rat CGRP were given in a random order.

[4] abbreviates: cumulative doses at 2 min intervals, anaesthetised rat.

On to “Tyr-CGRP (amino acids 1-8): tyrosinated fragment of human CGRP, amino acids 1 to 8 (ACDTATCV; Calcitonin gene-related peptide 1 N-terminal tyrosine added; UniProt P06881 83-90, looked up, fragment)”, for which, in test [1], the “cross-reaction with the antibody (displacement of tracer)” value (from here on “cross-reaction with the antibody”) is reported as “does not cross-react”.

Regarding “rat CGRP: synthetic rat CGRP preparation from Peninsula Laboratories”, in test [2] (setting [4]), the “fall in mean arterial pressure (MAP)” value is “dose-dependent fall in MAP” and the “increase in heart rate (HR)” value was “increase in HR”. For the same compound, the “dose representing a 50% decrease in blood pressure” value in test [2] (pentobarbitone anaesthetised rat) was determined as 0.23 nmol/kg. Moreover, in test [3] (isolated right atrium), the “potency relative to human CGRP at increasing rate (times more potent)” value is on record as “approximately 10 times” and the “potency relative to human CGRP in evoking increases in force” value is listed as “equipotent”. Besides, the “increase in rate or force in presence of propranolol” value in test [3] (propranolol) is listed as “Neither the increase in rate or force produced by rat CGRP was blocked”. The “cross-reaction with the antibody” value in test [1] was “recognises antigenic determinants”.

Consider “human calcitonin: human calcitonin, tested for cross-reaction in the radioimmunoassay”, for which the “cross-reaction with the antibody” value in test [1] is “does not cross-react”.

In the case of `CC(C)C[C@H](NC(=O)[C@H](CCCCN)NC(=O)CNC(=O)[C@H](CC(C)C)NC(=O)[C@@H](NC(=O)[C@@H]1CSSC[C@H](N)C(=O)N[C@@H](CO)C(=O)N[C@@H](CC(N)=O)C(=O)N[C@@H](CC(C)C)C(=O)N[C@@H](CO)C(=O)N[C@@H]([C@@H](C)O)C(=O)N1)C(C)C)C(=O)N[C@@H](CO)C(=O)N[C@@H](CCC(N)=O)C(=O)N[C@@H](CCC(=O)O)C(=O)N[C@@H](CC(C)C)C(=O)N[C@@H](Cc1c[nH]cn1)C(=O)N[C@@H](CCCCN)C(=O)N[C@@H](CC(C)C)C(=O)N[C@@H](CCC(N)=O)C(=O)N[C@H](C(=O)N[C@@H](Cc1ccc(O)cc1)C(=O)N1CCC[C@H]1C(=O)N[C@@H](CCCNC(=N)N)C(=O)N[C@H](C(=O)N[C@@H](CC(N)=O)C(=O)N[C@H](C(=O)NCC(=O)N[C@@H](CO)C(=O)NCC(=O)N[C@H](C(=O)N1CCC[C@H]1C(N)=O)[C@@H](C)O)[C@@H](C)O)[C@@H](C)O)[C@@H](C)O` [salmon calcitonin], the “cross-reaction with the antibody” value in test [1] is recorded as “does not cross-react”.

For “katacalcin: carboxy terminal peptide designated PDN-21 (Katacalcin) of the human calcitonin polyprotein (DMSSDLERDHRPHVSMPQNAN; Katacalcin; UniProt P01258 121-141, looked up)”, in test [1], the “cross-reaction with the antibody” value is “does not cross-react”.
